Columns and labels:
[1] = system: antibodies in sera from SARS patients (sera 1a, 1b, 2, 6, 37, 62, London, SARS-yellow, SARS-green); format: binding, human; design: Binding of serum 6 to linear peptides of protein X1 of SARS-CoV Urbani / Binding of serum 37 to linear peptides of protein X1 of SARS-CoV Urbani / Binding of serum 6 to looped/cyclic peptide (PEPSCAN-ELISA) / Binding of serum 37 to looped/cyclic peptide (PEPSCAN-ELISA) / Binding of serum 37 to looped/cyclic peptides of protein X1 of SARS-CoV Urbani / Binding of serum 6 to linear peptides of protein X2 / Binding of serum 37 to linear peptides of protein X2 / Binding of serum 37 to looped/cyclic peptides of protein X2 of SARS-CoV Urbani / Binding of serum 6 to linear peptides of protein M of SARS-CoV Urbani / Binding of serum 37 to linear peptides of protein M of SARS-CoV Urbani / Binding of serum 6 to looped/cyclic peptides of protein M of SARS-CoV Urbani / Binding of serum 37 to looped/cyclic peptides of protein M of SARS-CoV Urbani / Binding of serum 6 to linear peptides of protein X3 of SARS-CoV Urbani / Binding of serum 37 to linear peptides of protein X3 of SARS-CoV Urbani / Binding of serum 37 to looped/cyclic peptides of protein X3 of SARS-CoV Urbani / Binding of serum 6 to linear peptides of protein X4 of SARS-CoV Urbani / Binding of serum 37 to linear peptides of protein X4 of SARS-CoV Urbani / Binding of serum 37 to looped/cyclic peptides of protein X4 of SARS-CoV Urbani / Binding of serum 6 to linear peptides of protein X5 of SARS-CoV Urbani / Binding of serum 37 to linear peptides of protein X5 of SARS-CoV Urbani / Binding of serum 37 to looped/cyclic peptides of protein X5 of SARS-CoV Urbani / Binding of serum 6 to linear peptides of protein N of SARS-CoV Urbani / Binding of serum 37 to linear peptides of protein N of SARS-CoV Urbani / Binding of serum 6 to linear peptide (PEPSCAN-ELISA) / Binding of serum 1a to looped/cyclic peptides of protein N of SARS-CoV Urbani / Binding of serum 1b to looped/cyclic peptides of protein N of SARS-CoV Urbani / Binding of serum 2 to looped/cyclic peptides of protein N of SARS-CoV Urbani / Binding of serum 6 to looped/cyclic peptides of protein N of SARS-CoV Urbani / Binding of serum 37 to looped/cyclic peptides of protein N of SARS-CoV Urbani / Binding of serum 62 to looped/cyclic peptides of protein N of SARS-CoV Urbani / Binding of serum London to looped/cyclic peptides of protein N of SARS-CoV Urbani / Binding of serum SARS-green to looped/cyclic peptides of protein N of SARS-CoV Urbani: unit not given here
[2] = system: control sera (pooled serum of ten healthy LUMC hospital workers; commercial negative donor pooled serum from the Dutch bloodbank); format: binding, human; design: Binding of Control serum LUMC to linear peptides / Binding of Control serum Blood-bank to linear peptides / Binding of Control serum LUMC to looped peptides / Binding of Control Serum Blood-Bank to Looped peptides / Binding of Control serum LUMC to linear peptides of the protein M of SARS-CoV Urbani / Binding of Control serum Blood-bank to linear peptides of the protein M of SARS-CoV Urbani / Binding of Control serum LUMC to looped peptides of the protein M of SARS-CoV Urbani / Binding of Control Serum Blood-Bank to Looped peptides of the protein M of SARS-CoV Urbani: unit not given here
[3] = system: rabbit serum obtained by immunizing a rabbit with the SARS-CoV strain Frankfurt 1; format: binding; design: Binding of a rabbit serum to linear peptides / Binding of a rabbit serum to looped peptides / Rabbit serum linear peptides / Rabbit serum looped peptides / Binding of a rabbit serum to linear peptides of protein N of SARS-CoV Urbani (Rabbit serum linear peptides) / Binding of a rabbit serum to looped/cyclic peptides of protein N of SARS-CoV Urbani (Rabbit serum looped peptides): unit not given here
[4] = system: recombinant human anti-SARS-CoV antibody 03-018; format: binding; design: Binding of antibody 03-018 to linear peptides of the N protein of SARS-CoV Urbani / Binding of antibody 03-018 to looped/cyclic peptides of the N protein of SARS-CoV Urbani: unit not given here

Row | Sequence | Binding of serum 1a to looped/cyclic peptides of protein N of SARS-CoV Urbani [1] | Binding of serum 1b to looped/cyclic peptides of protein N of SARS-CoV Urbani [1] | Binding of serum 2 to looped/cyclic peptides of protein N of SARS-CoV Urbani [1] | Binding of serum 6 to looped/cyclic peptides of protein N of SARS-CoV Urbani [1] | Binding of serum 37 to looped/cyclic peptides of protein N of SARS-CoV Urbani [1] | Binding of serum 62 to looped/cyclic peptides of protein N of SARS-CoV Urbani [1] | Binding of serum London to looped/cyclic peptides of protein N of SARS-CoV Urbani [1] | Binding of serum SARS-green to looped/cyclic peptides of protein N of SARS-CoV Urbani [1] | Binding of serum SARS-yellow to looped/cyclic peptides of protein N of SARS-CoV Urbani [1] | Binding of Control Serum Blood-Bank to Looped peptides [2] | Binding of Control serum Blood-bank to linear peptides [2] | Binding of Control serum LUMC to linear peptides [2] | Binding of Control serum LUMC to looped peptides [2] | Binding of a rabbit serum to linear peptides of protein N of SARS-CoV Urbani (Rabbit serum linear peptides) [3] | Binding of a rabbit serum to looped/cyclic peptides of protein N of SARS-CoV Urbani (Rabbit serum looped peptides) [3] | Binding of antibody 03-018 to linear peptides of the N protein of SARS-CoV Urbani [4] | Binding of antibody 03-018 to looped/cyclic peptides of the N protein of SARS-CoV Urbani [4] | Binding of serum 1a to linear peptide (PEPSCAN-ELISA) [1] | Binding of serum 1b to linear peptide (PEPSCAN-ELISA) [1] | Binding of serum 2 to linear peptide (PEPSCAN-ELISA) [1] | further results
1 | GDGKMKELSPRWYFY | 0.4 | 0.3 | 0.6 | 0.3 | 0.7 | 0.6 | 0.5 | 0.5 | 0.7 | 0.7 | 0.6 | 0.6 | 0.8 | 0.2 | 0.6 | 0.1 | 0.2 |  |  |  | Binding of serum 1a to linear peptides of protein N of SARS-CoV Urbani [1]: 0.2; Binding of serum 1b to linear peptides of protein N of SARS-CoV Urbani [1]: 0.1; Binding of serum 2 to linear peptides of protein N of SARS-CoV Urbani [1]: 0.2; Binding of serum 6 to linear peptides of protein N of SARS-CoV Urbani [1]: 0.1; Binding of serum 37 to linear peptides of protein N of SARS-CoV Urbani [1]: 0.5; Binding of serum 62 to linear peptides of protein N of SARS-CoV Urbani [1]: 0.6; Binding of serum London to linear peptides of protein N of SARS-CoV Urbani [1]: 0.4; Binding of serum SARS-green to linear peptides of protein N of SARS-CoV Urbani [1]: 0.3; Binding of serum SARS-yellow to linear peptides of protein N of SARS-CoV Urbani [1]: 0.6
2 | GDQDLIRQGTDYKHW | 0.4 | 0.2 | 0.4 | 0.3 | 0.6 | 0.5 | 0.4 | 0.4 | 0.3 | 0.6 | 0.9 | 0.8 | 0.5 | 0.1 | 0.5 | 0.1 | 0.2 | 0.2 | 0.1 | 0.2 | Binding of serum 6 to linear peptide (PEPSCAN-ELISA) [1]: 0.3; Binding of serum 37 to linear peptide (PEPSCAN-ELISA) [1]: 0.6; Binding of serum 62 to linear peptide (PEPSCAN-ELISA) [1]: 0.7; Binding of serum London to linear peptide (PEPSCAN-ELISA) [1]: 0.9; Binding of serum SARS-green to linear peptide (PEPSCAN-ELISA) [1]: 0.5; Binding of serum SARS-yellow to linear peptide (PEPSCAN-ELISA) [1]: 0.7
3 | GETALALLLLDRLNQ | 0.4 | 0.2 | 0.4 | 0.2 | 0.7 | 0.7 | 0.5 | 0.3 | 0.6 | 0.7 | 0.6 | 0.6 | 0.7 | 0.2 | 0.6 | 0.1 | 0.3 | 0.2 | 0.1 | 0.2 | Binding of serum 6 to linear peptide (PEPSCAN-ELISA) [1]: 0.1; Binding of serum 37 to linear peptide (PEPSCAN-ELISA) [1]: 0.5; Binding of serum 62 to linear peptide (PEPSCAN-ELISA) [1]: 0.6; Binding of serum London to linear peptide (PEPSCAN-ELISA) [1]: 0.5; Binding of serum SARS-green to linear peptide (PEPSCAN-ELISA) [1]: 0.2; Binding of serum SARS-yellow to linear peptide (PEPSCAN-ELISA) [1]: 0.6
4 | GFYAEGSRGGSQASS | 0.3 | 0.2 | 0.4 | 0.3 | 0.3 | 0.2 | 0.3 | 0.3 | 0.1 | 0.5 | 0.7 | 0.6 | 0.5 | 0.1 | 0.0 | 0.1 | 0.2 | 0.3 | 0.1 | 0.2 | Binding of serum 6 to linear peptide (PEPSCAN-ELISA) [1]: 0.4; Binding of serum 37 to linear peptide (PEPSCAN-ELISA) [1]: 0.7; Binding of serum 62 to linear peptide (PEPSCAN-ELISA) [1]: 0.5; Binding of serum London to linear peptide (PEPSCAN-ELISA) [1]: 0.4; Binding of serum SARS-green to linear peptide (PEPSCAN-ELISA) [1]: 0.1; Binding of serum SARS-yellow to linear peptide (PEPSCAN-ELISA) [1]: 0.4

— US20070128217A1 (priority 2003, published 2007)
